Consider 27 compounds from patent US4107165A, “Tris[tetrahydroisoquinoline] compounds” (Endo Laboratories, priority 1976, dated 1978).

Converted amounts (≈) assume the structure as drawn. Structures can show the parent of a compound that is named as a salt.

One data set relates to ADP-induced platelet aggregation and experimental thrombosis.
Assay: not given
Conditions: literature; cited from earlier work.
As to `OCCN(CCO)c1nc(N2CCCCC2)c2nc(N(CCO)CCO)nc(N3CCCCC3)c2n1` [dipyridamole, 2,2',2",2'"-[(4,8-dipiperidinopyrimido[5,4-d]pyrimidine-2,6-diyl)dinitrilo]tetraethanol, reference compound], the “effect against ADP-induced platelet aggregation and experimental thrombosis” value is “generally recognized as being effective against ADP-induced platelet aggregation and experimental thrombosis”.

For another data set, the system named is ADP-induced platelet aggregation. The data set can be described thus: inhibition of ADP-induced platelet aggregation in platelet rich plasma. The class given is cell-based. Conditions: 5 min; human platelet rich plasma, 37° C, five minutes incubation prior to ADP; read-out: ED50 (amount which reduces platelet aggregation by 50%). As to the method:
Another selection of representative compounds within the scope of the present invention, including some listed in the previous table, have been tested for their ability to inhibit platelet aggregation. Citrated whole blood from human volunteers, who had not taken any medicine for the previous week, was centrifuged to obtain platelet rich plasma. On addition of ADP (adenosine diphosphate) to this platelet rich plasma, incubated at 37° C with constant stirring, in an aggregometer, optical density changes can be observed which are caused by platelet aggregation. Thus, the extent of ADP-induced platelet aggregation is determined for each sample of blood used. Compounds to be tested were incubated for five minutes prior to the addition of ADP. The ED50 of a compound is that amount, in γ/ml, which reduces platelet aggregation by 50% under the above conditions.
Turning to `COc1cc2c(cc1OC)C(CCCCC(CCC1=NCCc3cc(OC)c(OC)cc31)CCC1=NCCc3cc(OC)c(OC)cc31)=NCC2.Cl.Cl.Cl.O.O.O` [Example 1.1a, 1,1'-{3-[2-(3,4-dihydro-6,7-dimethoxy-1-isoquinolinyl)ethyl]heptamethylene}bis[3,4-dihydro-6,7-dimethoxyisoquinoline] trihydrochloride trihydrate], the IC50 is less than 40 µg/mL. On the same count and under the same terms, with `COc1cc2c(cc1OC)C(CCC(CCC1=NCCc3cc(OC)c(OC)cc31)CCC(CC1=NCCc3cc(OC)c(OC)cc31)c1ccccc1)=NCC2.Cl.Cl.Cl.O.O.O` (centres unmarked) [Example 7.1a, 1,1'-{5-[2-(3,4-dihydro-6,7-dimethoxy-1-isoquinolinyl)ethyl]-2-phenylheptamethylene}bis[3,4-dihydro-6,7-dimethoxyisoquinoline] trihydrochloride trihydrate] the figure was less than 40 µg/mL; with `COc1cc2c(cc1OC)C(CCCCC(CCCCC(CCCCC1=NCCc3cc(OC)c(OC)cc31)C1=NCCc3cc(OC)c(OC)cc31)C1=NCCc3cc(OC)c(OC)cc31)=NCC2.Cl.Cl.Cl.Cl.O.O.O.O` (centres unmarked) [Example 15.1a, 1,1',1",1'"-(1,5,10,14-tetradecanetetrayl)tetrakis[3,4-dihydro-6,7-dimethoxyisoquinoline] tetrahydrochloride tetrahydrate], 27 µg/mL. Consider `COc1cc2c(cc1OC)C(CCOCC(COCCC1=NCCc3cc(OC)c(OC)cc31)OCCC1=NCCc3cc(OC)c(OC)cc31)=NCC2` [Example 17.1a, 1,1',1"-[1,2,3-propanetriyltri(oxyethylene)]tris[3,4-dihydro-6,7-dimethoxyisoquinoline]], for which the IC50 was less than 40 µg/mL. For the compound `COc1cc2c(cc1OC)C(CCC(CCC1NCCc3cc(OC)c(OC)cc31)(CCC1NCCc3cc(OC)c(OC)cc31)[N+](=O)[O-])NCC2` (centres unmarked) [Example 18.1, 1,1'-{3-nitro-3-[2-(1,2,3,4-tetrahydro-6,7-dimethoxy-1-isoquinolinyl)ethyl]pentamethylene}bis[1,2,3,4-tetrahydro-6,7-dimethoxyisoquinoline]], the IC50 was found to be 9 µg/mL (≈ 12.5 µM). Consider `COc1cc2c(cc1OC)C(CCC(CCC1=NCCc3cc(OC)c(OC)cc31)(CCC1=NCCc3cc(OC)c(OC)cc31)[N+](=O)[O-])=NCC2.Cl.Cl.Cl` [Example 18.1a, 1,1'-{3-[2-(3,4-dihydro-6,7-dimethoxy-1-isoquinolinyl)ethyl] -3-nitropentamethylene}bis[3,4-dihydro-6,7-dimethoxyisoquinoline] trihydrochloride], for which the IC50 stood at 6 µg/mL. With `COc1cc2c(cc1OC)C(CCCC(CCCC1=NCCc3cc(OC)c(OC)cc31)C1=NCCc3cc(OC)c(OC)cc31)=NCC2` [Example 19.1a, 1,1',1"-(1,4,7-heptanetriyl)tris[3,4-dihydro-6,7-dimethoxyisoquinoline]], the IC50 was less than 40 µg/mL. `OCCN(CCO)c1nc(N2CCCCC2)c2nc(N(CCO)CCO)nc(N3CCCCC3)c2n1` [dipyridamole, 2,2',2",2'"-[(4,8-dipiperidinopyrimido[5,4-d]pyrimidine-2,6-diyl)dinitrilo]tetraethanol, reference compound]: the IC50 was determined as 270 µg/mL (≈ 535 µM).

Tested on in another data set: not given
Assay: not given
Conditions: prior art; cited from earlier work.
Consider “Streptokinase: a streptococcal protein, has been used for thrombolysis”, for which the “side effects in thrombolysis” value was “side effects of pyrogenicity and anaphylactic reactions”.

In a further data set the test system is fibrinolytic activity.
Assay: not given
Conditions: prior art; cited from earlier work.
Regarding `CNC[C@H](O)c1ccc(O)c(O)c1` [epinephrine], the “fibrinolytic activity in vivo” value is listed as “Fibrinolytic activity in vivo can be induced”. As for `NCCc1c[nH]cn1` [histamine], the “fibrinolytic activity in vivo” value is reported as “Fibrinolytic activity in vivo can be induced”.

On to `O=C(O)c1cccnc1` [nicotinic acid], for which the “fibrinolytic activity in vivo” value was “Fibrinolytic activity in vivo can be induced”. For `CCCCC1C(=O)N(c2ccccc2)N(c2ccccc2)C1=O` [phenylbutazone], the “fibrinolytic activity in vivo” value is given as “Fibrinolytic activity in vivo can be induced”. `CCN(CC)CCOC(=O)c1ccc(N)cc1` [procaine]: the “fibrinolytic activity in vivo” value was “Fibrinolytic activity in vivo can be induced”.

As to `NCCc1c[nH]c2ccc(O)cc12` [serotonin], the “fibrinolytic activity in vivo” value was “Fibrinolytic activity in vivo can be induced”.

Another data set has as its system whole blood clot. The data set can be described thus: whole blood clot lysis method (fibrinolytic activity), blood from rats given compound intraperitoneally. Type of data set: in vivo. Conditions: Rattus norvegicus, ip, 4 h, intraperitoneal, blood diluted 1:10, clotted with thrombin, 37° C, four hours, read-out: ED50 (dose which causes lysis of 50% of the clot). The protocol: Certain representative compounds within the scope of the present invention have been tested for fibrinolytic activity by the whole blood clot lysis method, as modified from the procedure of Billimoria et al.^1 In this method, blood from rats given a fibrinolytic compound intraperitoneally is taken and diluted 1:10. A standard amount is clotted with thrombin, incubated at 37° C for four hours, and the amount of clot that has lysed is determined. […] These ED50 values for the various compounds tested are set forth in the following table, each of the compounds being identified by name and by the number of the ensuing example in which its synthesis is described. […] ^1 Billimoria, […]., James, […]., Lancet II, 471 (1959)
Consider `COc1cc2c(cc1OC)C(CCCC(CCCC(CCCC1NCCc3cc(OC)c(OC)cc31)C1NCCc3cc(OC)c(OC)cc31)C1NCCc3cc(OC)c(OC)cc31)NCC2.Cl.Cl.Cl.Cl.O.O.O.O` (centres unmarked) [Example 2.1, 1,1',1",1'"-(1,4,8,11-Undecanetetrayl)tetrakis[1,2,3,4-tetrahydro-6,7-dimethoxyisoquinoline] tetrahydrochloride tetrahydrate], for which the ED50 (in general, the dose that gives a 50% effect, or the effect in half of the subjects) was determined as 0.03 mg/kg. Take `COc1cc2c(cc1OC)C(CCC(CCC(CCC1NCCc3cc(OC)c(OC)cc31)CCC1NCCc3cc(OC)c(OC)cc31)CCC1NCCc3cc(OC)c(OC)cc31)NCC2.Cl.Cl.Cl.Cl.O.O.O.O` (centres unmarked) [Example 5.1, 1,1'-{3,6-bis[2-(1,2,3,4-tetrahydro-6,7-dimethoxy-1-isoquinolinyl)ethyl]-octamethylene}bis[1,2,3,4-tetrahydro-6,7-dimethoxyisoquinoline] tetrahydrochloride tetrahydrate]: the ED50 turned out to be 0.06 mg/kg. Consider `COc1cc2c(cc1OC)C(CCCCC(SCC1NCCc3cc(OC)c(OC)cc31)C1NCCc3cc(OC)c(OC)cc31)NCC2` (centres unmarked) [Example 6.1, 1,1'-[1-[(1,2,3,4-tetrahydro-6,7-dimethoxy-1-isoquinolinylmethyl)thio]pentamethylene]bis[1,2,3,4-tetrahydro-6,7-dimethoxyisoquinoline]], for which the ED50 is less than 0.6 mg/kg.

For the compound `COc1cc2c(cc1OC)C(CCC(CCC(CC1NCCc3cc(OC)c(OC)cc31)c1ccccc1)CCC1NCCc3cc(OC)c(OC)cc31)NCC2` (centres unmarked) [Example 7.1, 1,1'-{2-phenyl-5-[2-(1,2,3,4-tetrahydro-6,7-dimethoxy-1-isoquinolinyl)ethyl]heptamethylene}bis[1,2,3,4-tetrahydro-6,7-dimethoxyisoquinoline]], the 50% effective dose (ED50) was less than 0.1 mg/kg.

Consider `COc1cc2c(cc1OC)C(CCC(CCC1NCCc3cc(OC)c(OC)cc31)CCC(C)(C)CC1NCCc3cc(OC)c(OC)cc31)NCC2` (centres unmarked) [Example 8.1, 1,1'-{2,2-dimethyl-5-[2-(1,2,3,4-tetrahydro-6,7-dimethoxy-1-isoquinolinyl)ethyl]heptamethylene}bis[1,2,3,4-tetrahydro-6,7-dimethoxyisoquinoline]], for which the 50% effective dose (ED50) was less than 0.4 mg/kg. As to `COc1ccc2c(c1)CCNC2CCCCC(CCC1NCCc2cc(OC)ccc21)CCC1NCCc2cc(OC)ccc21` (centres unmarked) [Example 10.1, 1,1'-{3-[2-(1,2,3,4-tetrahydro-6-methoxy-1-isoquinolinyl)ethyl]heptamethylene}bis[1,2,3,4-tetrahydro-6-methoxyisoquinoline]], the median effective dose (ED50) was 0.5 mg/kg. Take `COc1cc2c(cc1OC)C(CCCCC(CCCCC(CCCCC1NCCc3cc(OC)c(OC)cc31)C1NCCc3cc(OC)c(OC)cc31)C1NCCc3cc(OC)c(OC)cc31)NCC2` (centres unmarked) [Example 15.1, 1,1',1",1'"-(1,5,10,14-tetradecanetetrayl)tetrakis[1,2,3,4-tetrahydro-6,7-dimethoxyisoquinoline]]: the ED50 was 0.04 mg/kg. Turning to `COc1cc2c(cc1OC)C(CCCC(CCCCC(CCCC1NCCc3cc(OC)c(OC)cc31)C1NCCc3cc(OC)c(OC)cc31)C1NCCc3cc(OC)c(OC)cc31)NCC2` (centres unmarked) [Example 16.1, 1,1',1",1'"-(1,4,9,12-dodecanetetrayl)tetrakis[1,2,3,4-tetrahydro-6,7-dimethoxyisoquinoline]], the median effective dose (ED50) was determined as 0.03 mg/kg. In the case of `COc1cc2c(cc1OC)C(CCOCC(COCCC1NCCc3cc(OC)c(OC)cc31)OCCC1NCCc3cc(OC)c(OC)cc31)NCC2.Cl.Cl.Cl` (centres unmarked) [Example 17.1, 1,1',1"-[1,2,3-PROPANETRIYLTRI-(OXYETHYLENE)]TRIS[1,2,3,4-TETRAHYDRO-6,7-DIMETHOXYISOQUINOLINE] TRIHYDROCHLORIDE], the ED50 was determined as 0.8 mg/kg.

`COc1cc2c(cc1OC)C(CCN(CCC1NCCc3cc(OC)c(OC)cc31)CCC1NCCc3cc(OC)c(OC)cc31)NCC2` (centres unmarked) [Example 17.3, 1,1',1"-(nitrilotriethylene)tris[1,2,3,4-tetrahydro-6,7-dimethoxyisoquinoline]]: the ED50 worked out at 0.7 mg/kg. Take `COc1cc2c(cc1OC)C(CCC(CCC1NCCc3cc(OC)c(OC)cc31)(CCC1NCCc3cc(OC)c(OC)cc31)[N+](=O)[O-])NCC2` (centres unmarked) [Example 18.1, 1,1'-{3-nitro-3-[2-(1,2,3,4-tetrahydro-6,7-dimethoxy-1-isoquinolinyl)ethyl]pentamethylene}bis[1,2,3,4-tetrahydro-6,7-dimethoxyisoquinoline]]: the ED50 is less than 0.6 mg/kg. Still for that read-out and setting: with `COc1cc2c(cc1OC)C(CCCC(CCCC1NCCc3cc(OC)c(OC)cc31)C1NCCc3cc(OC)c(OC)cc31)NCC2.Cl.Cl.Cl.O.O.O` (centres unmarked) [Example 19.1, 1,1',1"-(1,4,7-HEPTANETRIYL)TRIS[1,2,3,4-TETRAHYDRO-6,7-DIMETHOXYISOQUINOLINE] TRIHYDROCHLORIDE TRIHYDRATE] the figure was 0.03 mg/kg; with `COc1cc2c(cc1OC)[C@H](CCCC[C@H]1NCCc3cc(OC)c(OC)cc31)NCC2` [bisobrin dihydrochloride, 1,1'-tetramethylenebis[1,2,3,4-tetrahydro-6,7-dimethoxyisoquinoline], reference compound], 0.5 mg/kg.
